# Results from patent publication US9573954B2, “Pyrazolopyrimidine compounds” (University Health Network, priority 2012, dated 2017).
# Tested on: breast cancer cells (MDA-MB-468)
# Assay: Cancer cell line growth inhibition, Sulforhodamine B assay, MDA-MB-468
# Assay type: cell-based
# Conditions: Homo sapiens, MDA-MB-468, MDA-MB-468 breast cancer cell line; read-out: Cancer Cell Line GI50 Range MDA-MB-468
# Outline: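 Sulforhodamine B staining (TCA-fixed, read at 570 nm) estimates cell mass after 5-day compound treatment of MDA-MB-468 cells, final concentrations 10 nM to 50 μM in 10% FBS DMEM. GI50 derived from growth inhibition versus DMSO controls.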
row,SMILES,GI50 [nM]
1,Cc1cc(-c2cnn3c(NCC4CCOCC4)cc(N[C@H]4COC[C@H]4O)nc23)ccc1C(=O)NC1CC1 [Example C107],100 to 500
2,Cc1cc(-c2cnn3c(NCC4(F)CCN(C)CC4)cc(NC4CCCC4)nc23)ccc1C(=O)NC1CC1 [Example C170],100 to 500
3,Cc1cc(-c2cnn3c(NCC4CCOCC4)cc(NC4(CO)CCOCC4)nc23)ccc1C(=O)NC1CC1 [Example C88],100 to 500
4,Cc1cc(-c2cnn3c(NCC4(O)CCOCC4)cc(Oc4cccnc4)nc23)ccc1C(=O)NC1CC1 [Example C98],> 500
5,Cc1cc(-c2cnn3c(NCC4CCOCC4)cc(N[C@H]4CCCC[C@H]4CO)nc23)ccc1C(=O)NC1CC1 [Example C131],100 to 500
6,Cc1cc(-c2cnn3c(NCC4CCOCC4)cc(NC4CC5(COC5)C4)nc23)ccc1C(=O)NC1CC1 [Example C141],100 to 500
7,Cc1cc(-c2cnn3c(NCC4CCOCC4)cc(N[C@H]4CCCOC4)nc23)ccc1C(=O)NC1CC1 [Example C83],100 to 500
8,COc1cccc(Oc2cc(NCCN3CCOCC3)n3ncc(-c4ccc(C(=O)NC5CC5)c(C)c4)c3n2)c1 [Example C85],100 to 500
9,Cc1cc(-c2cnn3c(NCC4CCOCC4)cc(N[C@H]4CCC[C@@H]4O)nc23)ccc1C(=O)NC1CC1 [Example C123],≤ 100
10,Cc1cc(-c2cnn3c(NCCN4CCC(O)CC4)cc(N[C@H]4CCCC[C@H]4O)nc23)ccc1C(=O)NC1CC1 [Example C183],100 to 500
11,Cc1cc(-c2cnn3c(NC[C@H]4C[C@@H](O)C4)cc(NC4CCOCC4)nc23)ccc1C(=O)NC1CC1 [Example C156],100 to 500
12,Cc1cc(-c2cnn3c(NCC4CCOCC4)cc(N[C@@H]4CCCC[C@H]4O)nc23)ccc1C(=O)NC1CC1 [Example C124],100 to 500
13,Cc1cc(-c2cnn3c(NCC4CCOCC4)cc(N4CCOC[C@H]4CO)nc23)ccc1C(=O)NC1CC1 [Example C87],100 to 500

# Tested on: colon cancer cells (HCT116)
# Assay: Cancer cell line growth inhibition, Sulforhodamine B assay, HCT116
# Assay type: cell-based
# Conditions: Homo sapiens, HCT-116, HCT116 colon cancer cell line; read-out: Cancer Cell Line GI50 Range HCT116
# Outline: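 GI50 is calculated from growth inhibition relative to DMSO controls, using TCA-fixed, SRB-stained protein mass read at 570 nm. Compound, 10 nM–50 μM final in 10% FBS DMEM, was applied for 5 days to HCT116 cells that had been plated 24 h before at 1000–4000/well.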
row,SMILES,GI50 [nM]
1,Cc1cc(-c2cnn3c(NCC4CCOCC4)cc(N[C@H]4COC[C@H]4O)nc23)ccc1C(=O)NC1CC1 [Example C107],100 to 500
2,Cc1cc(-c2cnn3c(NCC4(F)CCN(C)CC4)cc(NC4CCCC4)nc23)ccc1C(=O)NC1CC1 [Example C170],100 to 500
3,Cc1cc(-c2cnn3c(NCC4CCOCC4)cc(NC4(CO)CCOCC4)nc23)ccc1C(=O)NC1CC1 [Example C88],> 500
4,Cc1cc(-c2cnn3c(NCC4(O)CCOCC4)cc(Oc4cccnc4)nc23)ccc1C(=O)NC1CC1 [Example C98],100 to 500
5,Cc1cc(-c2cnn3c(NCC4CCOCC4)cc(N[C@H]4CCCC[C@H]4CO)nc23)ccc1C(=O)NC1CC1 [Example C131],100 to 500
6,Cc1cc(-c2cnn3c(NCC4CCOCC4)cc(NC4CC5(COC5)C4)nc23)ccc1C(=O)NC1CC1 [Example C141],≤ 100
7,Cc1cc(-c2cnn3c(NCC4CCOCC4)cc(N[C@H]4CCCOC4)nc23)ccc1C(=O)NC1CC1 [Example C83],≤ 100
8,COc1cccc(Oc2cc(NCCN3CCOCC3)n3ncc(-c4ccc(C(=O)NC5CC5)c(C)c4)c3n2)c1 [Example C85],100 to 500
9,Cc1cc(-c2cnn3c(NCC4CCOCC4)cc(N[C@H]4CCC[C@@H]4O)nc23)ccc1C(=O)NC1CC1 [Example C123],≤ 100
10,Cc1cc(-c2cnn3c(NCCN4CCC(O)CC4)cc(N[C@H]4CCCC[C@H]4O)nc23)ccc1C(=O)NC1CC1 [Example C183],> 500
11,Cc1cc(-c2cnn3c(NC[C@H]4C[C@@H](O)C4)cc(NC4CCOCC4)nc23)ccc1C(=O)NC1CC1 [Example C156],100 to 500
12,Cc1cc(-c2cnn3c(NCC4CCOCC4)cc(N[C@@H]4CCCC[C@H]4O)nc23)ccc1C(=O)NC1CC1 [Example C124],100 to 500
13,Cc1cc(-c2cnn3c(NCC4CCOCC4)cc(N4CCOC[C@H]4CO)nc23)ccc1C(=O)NC1CC1 [Example C87],100 to 500

# Molecular target: T1, human TTK (Homo sapiens, UniProt P33981)
# T1 construct: Active TTK was purchased from Invitrogen as an amino terminal GST fusion of full length human TTK; purchased Invitrogen
# T1 sequence (P33981 1-857): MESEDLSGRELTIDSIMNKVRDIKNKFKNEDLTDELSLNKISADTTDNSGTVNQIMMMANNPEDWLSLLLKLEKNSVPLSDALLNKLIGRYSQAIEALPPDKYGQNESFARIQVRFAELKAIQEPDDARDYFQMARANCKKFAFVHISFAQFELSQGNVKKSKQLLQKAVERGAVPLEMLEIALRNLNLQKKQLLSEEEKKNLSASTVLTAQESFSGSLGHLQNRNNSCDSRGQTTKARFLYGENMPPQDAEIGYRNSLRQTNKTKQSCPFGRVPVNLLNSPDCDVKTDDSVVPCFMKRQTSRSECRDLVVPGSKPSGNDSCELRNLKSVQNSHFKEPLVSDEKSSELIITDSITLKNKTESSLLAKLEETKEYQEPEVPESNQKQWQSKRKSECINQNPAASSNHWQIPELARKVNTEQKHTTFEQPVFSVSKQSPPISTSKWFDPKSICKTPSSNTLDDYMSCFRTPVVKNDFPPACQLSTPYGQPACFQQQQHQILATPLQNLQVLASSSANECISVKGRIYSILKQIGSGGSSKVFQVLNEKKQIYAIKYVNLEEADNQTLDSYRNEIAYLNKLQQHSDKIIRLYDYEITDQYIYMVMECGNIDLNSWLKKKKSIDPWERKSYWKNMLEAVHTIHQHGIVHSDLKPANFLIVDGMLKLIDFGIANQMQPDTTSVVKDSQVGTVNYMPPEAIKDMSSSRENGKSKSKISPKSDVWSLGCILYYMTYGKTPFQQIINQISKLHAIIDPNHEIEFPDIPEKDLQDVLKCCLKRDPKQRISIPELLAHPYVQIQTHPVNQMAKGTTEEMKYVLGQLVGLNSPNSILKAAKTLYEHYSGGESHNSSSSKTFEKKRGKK
# Assay: TTK inhibition assay (indirect ELISA)
# Assay type: biochemical
# Conditions: 100 μM ATP; read-out: TTK IC50 Range
# Outline: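 Activity detected by indirect ELISA after compounds sat with full-length GST-TTK for 5 min prior to starting the reaction with ATP. IC50 came from a four-parameter logistic curve of % inhibition, calculated against background and uninhibited control wells.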
row,SMILES,IC50 [nM]
1,Cc1cc(-c2cnn3c(NCC4CCOCC4)cc(N[C@H]4COC[C@H]4O)nc23)ccc1C(=O)NC1CC1 [Example C107],< 100
2,Cc1cc(-c2cnn3c(NCC4(F)CCN(C)CC4)cc(NC4CCCC4)nc23)ccc1C(=O)NC1CC1 [Example C170],< 100
3,Cc1cc(-c2cnn3c(NCC4CCOCC4)cc(NC4(CO)CCOCC4)nc23)ccc1C(=O)NC1CC1 [Example C88],< 100
4,Cc1cc(-c2cnn3c(NCC4(O)CCOCC4)cc(Oc4cccnc4)nc23)ccc1C(=O)NC1CC1 [Example C98],< 100
5,Cc1cc(-c2cnn3c(NCC4CCOCC4)cc(N[C@H]4CCCC[C@H]4CO)nc23)ccc1C(=O)NC1CC1 [Example C131],< 100
6,Cc1cc(-c2cnn3c(NCC4CCOCC4)cc(NC4CC5(COC5)C4)nc23)ccc1C(=O)NC1CC1 [Example C141],< 100
7,Cc1cc(-c2cnn3c(NCC4CCOCC4)cc(N[C@H]4CCCOC4)nc23)ccc1C(=O)NC1CC1 [Example C83],< 100
8,COc1cccc(Oc2cc(NCCN3CCOCC3)n3ncc(-c4ccc(C(=O)NC5CC5)c(C)c4)c3n2)c1 [Example C85],< 100
9,Cc1cc(-c2cnn3c(NCC4CCOCC4)cc(N[C@H]4CCC[C@@H]4O)nc23)ccc1C(=O)NC1CC1 [Example C123],< 100
10,Cc1cc(-c2cnn3c(NCCN4CCC(O)CC4)cc(N[C@H]4CCCC[C@H]4O)nc23)ccc1C(=O)NC1CC1 [Example C183],< 100
11,Cc1cc(-c2cnn3c(NC[C@H]4C[C@@H](O)C4)cc(NC4CCOCC4)nc23)ccc1C(=O)NC1CC1 [Example C156],< 100
12,Cc1cc(-c2cnn3c(NCC4CCOCC4)cc(N[C@@H]4CCCC[C@H]4O)nc23)ccc1C(=O)NC1CC1 [Example C124],< 100
13,Cc1cc(-c2cnn3c(NCC4CCOCC4)cc(N4CCOC[C@H]4CO)nc23)ccc1C(=O)NC1CC1 [Example C87],< 100

# Tested on: ovarian cancer cells (OVCAR-3)
# Assay: Cancer cell line growth inhibition, Sulforhodamine B assay, OVCAR-3
# Assay type: cell-based
# Conditions: Homo sapiens, OVCAR-3, OVCAR-3 ovarian cancer cell line; read-out: Cancer Cell Line GI50 Range OVCAR-3
# Outline: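 OVCAR-3 cells were seeded 24 h before compound addition, then exposed for 5 days to final concentrations of 10 nM to 50 μM in DMEM with 10% FBS. Growth was measured by TCA fixation and sulforhodamine B staining with absorbance at 570 nm. Inhibition was relative to DMSO-only cells, and GI50 came from curve fitting.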
row,SMILES,GI50 [nM]
1,Cc1cc(-c2cnn3c(NCC4CCOCC4)cc(N[C@H]4COC[C@H]4O)nc23)ccc1C(=O)NC1CC1 [Example C107],> 500
2,Cc1cc(-c2cnn3c(NCC4(F)CCN(C)CC4)cc(NC4CCCC4)nc23)ccc1C(=O)NC1CC1 [Example C170],> 500
3,Cc1cc(-c2cnn3c(NCC4CCOCC4)cc(NC4(CO)CCOCC4)nc23)ccc1C(=O)NC1CC1 [Example C88],> 500
4,Cc1cc(-c2cnn3c(NCC4(O)CCOCC4)cc(Oc4cccnc4)nc23)ccc1C(=O)NC1CC1 [Example C98],> 500
5,Cc1cc(-c2cnn3c(NCC4CCOCC4)cc(N[C@H]4CCCC[C@H]4CO)nc23)ccc1C(=O)NC1CC1 [Example C131],> 500
6,Cc1cc(-c2cnn3c(NCC4CCOCC4)cc(NC4CC5(COC5)C4)nc23)ccc1C(=O)NC1CC1 [Example C141],100 to 500
7,Cc1cc(-c2cnn3c(NCC4CCOCC4)cc(N[C@H]4CCCOC4)nc23)ccc1C(=O)NC1CC1 [Example C83],100 to 500
8,COc1cccc(Oc2cc(NCCN3CCOCC3)n3ncc(-c4ccc(C(=O)NC5CC5)c(C)c4)c3n2)c1 [Example C85],100 to 500
9,Cc1cc(-c2cnn3c(NCC4CCOCC4)cc(N[C@H]4CCC[C@@H]4O)nc23)ccc1C(=O)NC1CC1 [Example C123],100 to 500
10,Cc1cc(-c2cnn3c(NCCN4CCC(O)CC4)cc(N[C@H]4CCCC[C@H]4O)nc23)ccc1C(=O)NC1CC1 [Example C183],> 500
11,Cc1cc(-c2cnn3c(NC[C@H]4C[C@@H](O)C4)cc(NC4CCOCC4)nc23)ccc1C(=O)NC1CC1 [Example C156],100 to 500
12,Cc1cc(-c2cnn3c(NCC4CCOCC4)cc(N[C@@H]4CCCC[C@H]4O)nc23)ccc1C(=O)NC1CC1 [Example C124],100 to 500
13,Cc1cc(-c2cnn3c(NCC4CCOCC4)cc(N4CCOC[C@H]4CO)nc23)ccc1C(=O)NC1CC1 [Example C87],> 500
